“Also recorded” adds a separate entry of the source. Where a SMILES comes first, the peptide text is derived from it. Bridges are numbered along the chain shown (N, C = ends). [ ]: non-standard residue; d: D form. dOrn = NCCC[C@@H](N)C(=O)O
Experiments:
[1] = Murine infection model; type: in vivo; conditions: initial attempts
[2] = system: E. coli BW25113
[3] = system: E. coli ribosome; assay: In vitro translocation assay; type: biochemical; conditions: mRNA MFK; 50 μM MKM or 250 μM negamycin; 1 μM E. coli ribosomes
Method: In vitro translocation assay was carried out using the model mRNA MFK (Supplementary Table 7) as described in the reference. The mRNA was prepared by in vitro transcription of a PCR product amplified using the primers MF_F1, MF_F2, and MF_R (Supplementary Table 6). A 4.5 μl reaction containing 1 μM E. coli ribosomes, 0.5 μM mRNA, 1 μM tRNAi^Met, 0.5 μM radiolabelled NV1 primer (Supplementary Table 6), 2 U/μl RiboLock RNase Inhibitor (Thermo), and antibiotic tested (50 μM MKM or 250 μM negamycin) in Pure System Buffer (PSB; 9 mM Mg(CH3COO)2, 5 mM K3PO4, 95 mM potassium glutamate, 5 mM NH4Cl, 0.5 mM CaCl2, 1 mM spermidine, 8 mM putrescine, 1 mM dithiothreitol, pH 7.3)[87] was incubated for 20 min at 37°C. Then N-acetyl-Phe-N-tRNAPhe, in which amino acid is attached to the tRNA’s A3’ hydroxyl via an amide bond, was added to the final concentration of 2 μM followed by 10 min incubation at 37°C. After addition of the E. coli EF-G and GTP to the final concentrations of 0.2 μM and 533 μM, respectively and incubation for 5 min at 30°C, 1 μl of the mixture of AMV reverse transcriptase (Roche) and dNTPs (2.1 U/μl AMV RT and 2 mM dNTPs in PSB) was added, and the reactions were incubated for another 5 min at 30°C. […]

[4] = system: bacterial ribosome; assay: Toeprinting analysis of MKM-induced ribosome stalling; type: biochemical, E. coli
Method: Toeprinting analysis was carried out in the E. coli in vitro transcription-translation system assembled from the purified components (PURExpress, NEB). Toeprinting was carried out using either ^32P-radiolabeled or fluorescently labeled reverse transcription primers, following the procedures described previously[21],[26],[27].
Reactions either contained no antibiotic or were supplemented with 50 μM retapamulin or varying concentrations of MKM. The inhibitors of aminoacyl-tRNA synthetases (mupirocin, Gly-AMS (MedChemExpress: Cat. No.: HY-108940), or Arg-AMS (MedChemExpress, Cat. No.: HY-112862)) were added to the final concentrations of 50 μM to stall translation at downstream “catch codons” (Ile, Gly, or Arg, respectively). The gltX template was prepared by amplifying the gltX gene from E. coli BW25113 genomic DNA using the primers T7_gltX_F and gltX_NV1_R (Supplementary Table 6). The yrbA_wt template and its derivatives containing 3-Ser or 3-Thr codons were generated by four-primer PCRs using the primers T7_IR_AUG_F, yrbA_wt_F / yrbA_TTT_F / yrbA_SSS_F, yrbA_wt_R/yrbA_Ile_catch_R, and posT-NV1_R (Supplementary Table 6).
Fluorescently labeled reactions were carried out on the ermBL toeprint mRNA template. The template was generated by PCR of two overlapping 77-nt- and 78-nt-long primers T7_ermBL_F and ermBL_UGA_R (Supplementary Table 6). Reactions were assembled in a 6 μl volume with 30 ng of the ermBL mRNA template and incubated for 15 min at 37 °C. Reverse transcription was carried out using AMV RT and primer NV*1-Alexa 647 (Supplementary Table 6) for 20 min at 37 °C. Reactions were terminated with 1 μl of 5 M NaOH, neutralized with 0.7 μl of 25% HCl, and nucleotide removal was performed with the QIAquick Nucleotide Removal Kit (Qiagen). The samples were dried under vacuum for 2 hours at 60 °C for subsequent gel electrophoresis. The 6% acrylamide gels were scanned on a Typhoon scanner (GE Healthcare). The sequences of all toeprinting templates used in the study can be found in Supplementary Table 7.

[5] = system: E. coli BW25113; assay: Bacterial cell morphology by scanning electron microscopy; type: cell-based; conditions: E. coli BW25113, 32 and 80 μg/ml, MOPS minimal medium, 1 h at 37°C
Method: After treatment, the cells were centrifuged at 5,000×g for 5 min, then resuspended in a fixative solution (4% glutaraldehyde in PBS, pH 7.4) at 0.1× the original volume. The cells were fixed at room temperature for 1 h and stored overnight at 4 °C. The following day, 50 μl of the fixed cells were transferred onto coverslips coated with poly-L-lysine, dehydrated through a series of ethanol treatments, and dried using a critical point dryer. The samples were then examined with a scanning electron microscope (TESCAN VEGA-II LSU) equipped with an X-MAX 80mm^2 EDS detector, and images were captured using INCA software.

[6] = system: E. coli S30 extract transcription-translation system; assay: Inhibition of protein synthesis in E. coli cell-free transcription-translation system; type: biochemical; conditions: E. coli S30 lysate, pBESTluc plasmid, 0.05 to 100 μM, 1 h at 37°C, luminescence; mean ±SD of three technical replicates
Method: The impact of MKM-A and MKM-E on in vitro protein synthesis was evaluated using the E. coli S30 extract transcription-translation system (Promega) following the manufacturer’s protocol. The pBESTluc plasmid DNA was utilized as the template to produce firefly luciferase. MKM analogues were tested across a concentration range of 0.05 to 100 μM. The reactions were incubated for one hour at 37°C. Luminescence was then measured in opaque 96-well plates using a Synergy Microplate Reader (Biotek). The IC50 values, indicating the concentration at which MKMs inhibited protein synthesis by 50%, were determined using GraphPad Prism 10 software.

[7] = highly resistant mutants of E. coli BW25113 selected by passaging

With `C[C@@H](O)[C@@H]1NC(=O)[C@@H](CCCNC(=N)N)NC(=O)[C@@H](CCCNC(=N)N)NC(=O)[C@@H](CC(N)=O)NC(=O)[C@@H](NC(=O)[C@@H](Cc2ccccc2)NC(=O)[C@@H](CCCN)NC(=O)[C@H](N)CCCNC(=N)N)[C@@H](C)OC(=O)[C@H](Cc2c[nH]cn2)NC1=O` [MKM, manikomycin A] (H-[dR][dOrn][dF]T[dN][dR][dR]TH; ester 4-C) the “protective effect in murine infection model” value [1] was “did not yield a strong protective effect”, the “increase in MIC” value ([2]; deletion of genes encoding components of the transporter YejABEF) was 2–8 fold and the MIC [2, 7] was 512 to 1024 µg/mL. For the same molecule, the “increase in MIC over parental strain” value [2, 7] was 16- to 32 fold, the “inhibition of EF-G-dependent translocation” value [3] was “notably inhibited” and the “ribosome stalling, ermBL mRNA” value ([4]; E. coli in vitro protein synthesis system, ermBL template) was “ribosomes stall primarily on the third codon; also recorded: stalled the ribosome on the third codon”. The “ribosome stalling, gltX template” value ([4]; gltX template, Gly-AMS in all reactions) was “arrested some ribosomes at the start codon, a notable fraction of them became arrested at several specific sites along the mRNA”, the “ribosome stalling, yrbA-SSS template” value ([4]; yrbA with three Ser codons after start codon, high concentrations of MKM) was “no ribosomes pass downstream of the start codon” and the “ribosome stalling, yrbA-TTT template” value ([4]; yrbA with three Thr codons after start codon) was “a fraction of ribosomes was able to move through the Thr codons”. The bacterial cell morphology [5] was “no detectable changes in bacterial cell morphology” and the IC50 [6] was 600 nM.

— paper PMC12236907, “A Natural Depsipeptide Antibiotic that Targets the E site of the Bacterial Ribosome” (Research Square, 2025)
